Tests used:
Experiment in all cases: relative viability (nuclei count vs DMSO), 5 days (fraction); higher = more cells survive
NCI-H1650 = tested on: NCI-H1650
Method in brief: (§1)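 For relative viability, nuclei counts in treated wells were divided by those in vehicle wells. Lung cancer cell lines had been pin-tool dosed in 1536-well plates the day after seeding and cultured for 5 days, then fixed and stained in one step (final 0.05% Triton X-100, 1% formaldehyde, 1 ug/ml Hoechst) and imaged at 4×. Doses were one drug alone or a fixed anchor-drug dose plus five library-drug doses (not always all listed) in √10 steps, and values are duplicate-plate medians.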

NCI-H441 = tested on: NCI-H441
Method in brief: as §1

PC-14 = tested on: PC-14
Method in brief: as §1

HARA = tested on: HARA
Method in brief: as §1

HOP-62 = tested on: HOP-62
Method in brief: as §1

HCC-78 = tested on: HCC-78
Method in brief: as §1

NCI-H661 = tested on: NCI-H661
Method in brief: as §1

NCI-H1437 = tested on: NCI-H1437
Method in brief: as §1

LXF-289 = tested on: LXF-289
Method in brief: as §1

NCI-H596 = tested on: NCI-H596
Method in brief: as §1

LCLC-97TM1 = tested on: LCLC-97TM1
Method in brief: as §1

NCI-H2087 = tested on: NCI-H2087
Method in brief: as §1

NCI-H1666 = tested on: NCI-H1666
Method in brief: as §1

NCI-H1944 = tested on: NCI-H1944
Method in brief: as §1

H3255 = tested on: H3255
Method in brief: as §1

NCI-H2085 = tested on: NCI-H2085
Method in brief: as §1

NCI-H2126 = tested on: NCI-H2126
Method in brief: as §1

ChaGo-K-1 = tested on: ChaGo-K-1
Method in brief: as §1

COR-L23 = tested on: COR-L23
Method in brief: as §1

NCI-H3122 = tested on: NCI-H3122
Method in brief: as §1

EPLC-272H = tested on: EPLC-272H
Method in brief: as §1

CCNC(=O)c1noc(-c2cc(C(C)C)c(O)cc2O)c1-c1ccc(CN2CCOCC2)cc1 [Luminespib] + C[C@@H](Oc1cc(-c2cnn(C3CCNCC3)c2)cnc1N)c1c(Cl)ccc(F)c1Cl [Crizotinib] (partner 1 µM) gave a relative viability (NCI-H1650; first compound 0.002 µM) of 0.944, a relative viability (NCI-H1650; first compound 0.006325 µM) of 0.928 and a relative viability (NCI-H1650; first compound 0.02 µM) of 0.7. For the same compound, the relative viability (NCI-H1650; first compound 0.06325 µM) was 0.12, the relative viability (NCI-H1650; first compound 0.2 µM) was 0.134 and the relative viability (NCI-H441; first compound 0.002 µM) was 0.884. The relative viability (NCI-H441; first compound 0.006325 µM) was 0.719, the relative viability (NCI-H441; first compound 0.02 µM) was 0.904 and the relative viability (NCI-H441; first compound 0.06325 µM) was 0.119. For the same compound, the relative viability (NCI-H441; first compound 0.2 µM) was 0.109, the relative viability (PC-14; first compound 0.002 µM) was 0.973 and the relative viability (PC-14; first compound 0.006325 µM) was 0.845. It also gave a relative viability (PC-14; first compound 0.02 µM) of 1.12, a relative viability (PC-14; first compound 0.06325 µM) of 0.171 and a relative viability (PC-14; first compound 0.2 µM) of 0.102. For the same compound, the relative viability (HARA; first compound 0.002 µM) was 1.02, the relative viability (HARA; first compound 0.006325 µM) was 0.957 and the relative viability (HARA; first compound 0.02 µM) was 1.17. The relative viability (HARA; first compound 0.06325 µM) was 1.06, the relative viability (HARA; first compound 0.2 µM) was 0.0699 and the relative viability (HOP-62; first compound 0.002 µM) was 0.931. It also gave a relative viability (HOP-62; first compound 0.006325 µM) of 0.962, a relative viability (HOP-62; first compound 0.02 µM) of 0.79 and a relative viability (HOP-62; first compound 0.06325 µM) of 0.993. It also gave a relative viability (HOP-62; first compound 0.2 µM) of 0.875, a relative viability (HCC-78; first compound 0.002 µM) of 0.302 and a relative viability (HCC-78; first compound 0.06325 µM) of 0.337. For the same compound, the relative viability (HCC-78; first compound 0.2 µM) was 0.232, the relative viability (NCI-H661; first compound 0.006325 µM) was 0.936 and the relative viability (NCI-H661; first compound 0.02 µM) was 1.05. The relative viability (NCI-H661; first compound 0.06325 µM) was 0.939, the relative viability (NCI-H661; first compound 0.2 µM) was 0.715 and the relative viability (NCI-H1437; first compound 0.002 µM) was 0.92. It also gave a relative viability (NCI-H1437; first compound 0.006325 µM) of 0.833, a relative viability (NCI-H1437; first compound 0.02 µM) of 1.05 and a relative viability (NCI-H1437; first compound 0.06325 µM) of 0.83. It also gave a relative viability (NCI-H1437; first compound 0.2 µM) of 0.478, a relative viability (LXF-289; first compound 0.002 µM) of 0.825 and a relative viability (LXF-289; first compound 0.006325 µM) of 0.79. For the same compound, the relative viability (LXF-289; first compound 0.02 µM) was 0.894, the relative viability (LXF-289; first compound 0.06325 µM) was 0.459 and the relative viability (LXF-289; first compound 0.2 µM) was 0.123. It also gave a relative viability (NCI-H596; first compound 0.002 µM) of 1.05, a relative viability (NCI-H596; first compound 0.006325 µM) of 1 and a relative viability (NCI-H596; first compound 0.06325 µM) of 0.851. It also gave a relative viability (NCI-H596; first compound 0.2 µM) of 0.938, a relative viability (LCLC-97TM1; first compound 0.002 µM) of 0.417 and a relative viability (LCLC-97TM1; first compound 0.006325 µM) of 0.461. For the same compound, the relative viability (LCLC-97TM1; first compound 0.02 µM) was 0.157, the relative viability (LCLC-97TM1; first compound 0.06325 µM) was 0.221 and the relative viability (LCLC-97TM1; first compound 0.2 µM) was 0.22. The relative viability (NCI-H2087; first compound 0.002 µM) was 0.934, the relative viability (NCI-H2087; first compound 0.006325 µM) was 0.684 and the relative viability (NCI-H2087; first compound 0.02 µM) was 0.875. The relative viability (NCI-H2087; first compound 0.06325 µM) was 0.156, the relative viability (NCI-H2087; first compound 0.2 µM) was 0.145 and the relative viability (NCI-H1666; first compound 0.002 µM) was 1.04. For the same compound, the relative viability (NCI-H1666; first compound 0.006325 µM) was 0.929, the relative viability (NCI-H1666; first compound 0.02 µM) was 1.13 and the relative viability (NCI-H1666; first compound 0.06325 µM) was 1. It also gave a relative viability (NCI-H1666; first compound 0.2 µM) of 0.756, a relative viability (NCI-H1944; first compound 0.002 µM) of 1.08 and a relative viability (NCI-H1944; first compound 0.006325 µM) of 1.04. For the same compound, the relative viability (NCI-H1944; first compound 0.02 µM) was 0.775, the relative viability (NCI-H1944; first compound 0.06325 µM) was 0.955 and the relative viability (NCI-H1944; first compound 0.2 µM) was 0.97. For the same compound, the relative viability (H3255; first compound 0.002 µM) was 0.896, the relative viability (H3255; first compound 0.006325 µM) was 0.691 and the relative viability (H3255; first compound 0.02 µM) was 0.755. It also gave a relative viability (H3255; first compound 0.06325 µM) of 0.621, a relative viability (H3255; first compound 0.2 µM) of 0.216 and a relative viability (NCI-H2085; first compound 0.002 µM) of 1.04. It also gave a relative viability (NCI-H2085; first compound 0.006325 µM) of 0.953, a relative viability (NCI-H2085; first compound 0.02 µM) of 0.948 and a relative viability (NCI-H2085; first compound 0.06325 µM) of 0.383. For the same compound, the relative viability (NCI-H2085; first compound 0.2 µM) was 0.272, the relative viability (NCI-H2126; first compound 0.002 µM) was 1.08 and the relative viability (NCI-H2126; first compound 0.006325 µM) was 0.97. For the same compound, the relative viability (NCI-H2126; first compound 0.02 µM) was 0.84, the relative viability (NCI-H2126; first compound 0.06325 µM) was 0.993 and the relative viability (NCI-H2126; first compound 0.2 µM) was 0.951. For the same compound, the relative viability (ChaGo-K-1; first compound 0.002 µM) was 1.23, the relative viability (ChaGo-K-1; first compound 0.02 µM) was 1.01 and the relative viability (ChaGo-K-1; first compound 0.06325 µM) was 0.562. For the same compound, the relative viability (ChaGo-K-1; first compound 0.2 µM) was 0.301, the relative viability (COR-L23; first compound 0.002 µM) was 0.806 and the relative viability (COR-L23; first compound 0.006325 µM) was 0.629. For the same compound, the relative viability (COR-L23; first compound 0.02 µM) was 0.81, the relative viability (COR-L23; first compound 0.06325 µM) was 0.0713 and the relative viability (COR-L23; first compound 0.2 µM) was 0.0608. It also gave a relative viability (NCI-H3122; first compound 0.002 µM) of 0.278, a relative viability (NCI-H3122; first compound 0.006325 µM) of 0.267 and a relative viability (NCI-H3122; first compound 0.02 µM) of 0.222. The relative viability (NCI-H3122; first compound 0.06325 µM) was 0.181, the relative viability (NCI-H3122; first compound 0.2 µM) was 0.165 and the relative viability (EPLC-272H; first compound 0.006325 µM) was 0.892. The relative viability (EPLC-272H; first compound 0.02 µM) was 0.655, the relative viability (EPLC-272H; first compound 0.06325 µM) was 0.88 and the relative viability (EPLC-272H; first compound 0.2 µM) was 0.917.
